Assay results: article PMC9600172, “N-Succinyltransferase Encoded by a Cryptic Siderophore Biosynthesis Gene Cluster in Streptomyces Modifies Structurally Distinct Antibiotics” (mBio, 2022)
≈ marks a conversion by molar mass, not a printed value. Where two headings read alike, the source gives them in different places.

Columns and labels:
Parameters in all cases: Broth microdilution MIC following CLSI protocol, bacterial growth inhibition, at Medina Foundation
[1] = tested on: T1, E. faeciumVR; assay: organism not typed
T1 construct: VR (vancomycin-resistant)
Method: (§1) Testing of antimicrobial activities of desertomycin A and X was done by disk diffusion assay using Bacillus subtilis 164, Escherichia coli DH5a, and Saccharomyces cerevisiae BY4742 as test organisms. […] In vitro susceptibility for desertomycin A was determined at Medina Foundation (Granada, Spain) by the broth microdilution method following the Clinical and Laboratory Standards Institute protocol ([34]) using bacterial strains from the company’s strain collection (Table S4). […] In order to properly assess antibiotic activity of desertomycin A, it was tested, along with some clinically relevant antibiotics, on a panel of Gram-positive and Gram-negative bacteria using the broth microdilution method. […] This can be explained by different physiological conditions of bacterial cultures on the solid agar medium (initial disk assay) and in [compound left out] cultures (CLSI method).

[2] = tested on: T2, E. faeciumVS; assay: organism not typed
T2 construct: VS (vancomycin-susceptible)
Method: as §1

[3] = tested on: T3, Staphylococcus aureus MSSA MB2865; assay: microbe, parasite or virus in culture
T3 construct: MB2865 (MSSA)
Method: as §1

[4] = tested on: T4, Staphylococcus aureus MRSA MB5393; assay: microbe, parasite or virus in culture
T4 construct: MB5393 (MRSA)
Method: as §1

[5] = tested on: T5, S. mutans ATCC25175; assay: microbe, parasite or virus in culture; details: Streptococcus mutans
T5 construct: ATCC 25175

[6] = tested on: T3, Staphylococcus aureus MSSA MB2865; assay: microbe, parasite or virus in culture; remark: listed apart in the source
Method: as §1, with “liquid” for “[compound left out]”

[7] = tested on: T4, Staphylococcus aureus MRSA MB5393; assay: microbe, parasite or virus in culture; remark: listed apart in the source
Method: as §1, with “liquid” for “[compound left out]”

[8] = tested on: T1, E. faeciumVR; assay: organism not typed; remark: listed apart in the source
Method: as §1, with “liquid” for “[compound left out]”

[9] = tested on: T2, E. faeciumVS; assay: organism not typed; remark: listed apart in the source
Method: as §1, with “liquid” for “[compound left out]”

Compound	MIC [1] [µg/mL]	MIC [2] [µg/mL]	MIC [3] [µg/mL]	MIC [4] [µg/mL]	MIC [5] [µg/mL]	MIC [6] [µg/mL]	MIC [7] [µg/mL]	MIC [8] [µg/mL]	MIC [9] [µg/mL]
C[C@H]1[C@H](NC(=O)/C(=N\OC(C)(C)C(=O)O)c2csc(N)n2)C(=O)N1S(=O)(=O)O [Aztreonam]	> 128	> 128	> 128	> 128					
CC1(C)S[C@@H]2[C@H](NC(=O)Cc3ccccc3)C(=O)N2[C@H]1C(=O)O [Penicillin G]	> 128	> 128	16 (≈ 47.8 µM)	16 (≈ 47.8 µM)					
CC1=CCCC(C)C(O)C(C)C(O)CCC=CC(C)C(O)C=CC(C)C(O)C(C)=CC(O[C@H]2O[C@H](CO)[C@@H](O)[C@H](O)[C@@H]2O)C(O)CC(O)CC(O)CC(O)C(C)C(O)C(C)C(O)CC(O)CC(O)C=CCC(C(C)C(O)CCCN)OC1=O (stereo partly shown) [Desertomycin A]	128 (≈ 107 µM)	64 (≈ 53.7 µM)	32 (≈ 26.8 µM)	64 (≈ 53.7 µM)	32 (≈ 26.8 µM)				
O=C(O)c1cn(C2CC2)c2cc(N3CCNCC3)c(F)cc2c1=O [Ciprofloxacin]	16 (≈ 48.3 µM)	> 128	< 0.25	0.5 (≈ 1.51 µM)					
CN[C@H](CC(C)C)C(=O)N[C@H]1C(=O)N[C@@H](CC(N)=O)C(=O)N[C@H]2C(=O)N[C@H]3C(=O)N[C@H](C(=O)N[C@H](C(=O)O)c4cc(O)cc(O)c4-c4cc3ccc4O)[C@H](O)c3ccc(c(Cl)c3)Oc3cc2cc(c3O[C@@H]2O[C@H](CO)[C@@H](O)[C@H](O)[C@H]2O[C@H]2C[C@](C)(N)[C@H](O)[C@H](C)O2)Oc2ccc(cc2Cl)[C@H]1O [Vancomycin]	> 128	16 (≈ 11 µM)	2 (≈ 1.38 µM)	8 (≈ 5.52 µM)					
CNC(C)[C@@H]1CC[C@@H](N)[C@@H](O[C@H]2[C@H](O)[C@@H](O[C@H]3OC[C@](C)(O)[C@H](NC)[C@H]3O)[C@H](N)C[C@@H]2N)O1 (stereo partly shown) [Gentamicin]						1 (≈ 2.09 µM)	< 0.25	32 (≈ 67 µM)	> 128
C[C@@H](O)[C@H]1C(=O)N2C(C(=O)O)=C(SCCNC=N)C[C@H]12 [Imipenem]	> 128	> 128	< 0.25	8 (≈ 26.7 µM)					
CO[C@H]1/C=C/O[C@@]2(C)Oc3c(C)c(O)c4c(O)c(c(/C=N/N5CCN(C)CC5)c(O)c4c3C2=O)NC(=O)/C(C)=C\C=C\[C@H](C)[C@H](O)[C@@H](C)[C@@H](O)[C@@H](C)[C@H](OC(C)=O)[C@@H]1C [Rifampicin]	16 (≈ 19.4 µM)	8 (≈ 9.72 µM)	0.5 (≈ 0.608 µM)	0.5 (≈ 0.608 µM)					
C[C@@H](O)[C@H]1C(=O)N2C(C(=O)O)=C(S[C@@H]3CN[C@H](C(=O)N(C)C)C3)[C@H](C)[C@H]12 [Meropenem]	> 128	> 128	< 0.25	8 (≈ 20.9 µM)					
